Entries after “also recorded” stand apart in the source; their conditions may differ. Read-outs that look alike come from different tables or passages of the source.
Columns and labels:
[1] = tested on: aldehyde oxidase (the present enzyme); test: Substrate specificity of the present aldehyde oxidase; type: biochemical, Pseudomonas sp No. 6233; conditions: for Relative activity (substrate specificity): purified enzyme of Example 1, formaldehyde = 100%
Procedure: (§1) The amount of enzyme for decomposing 1 μmol of acetaldehyde in the presence of oxygen at 37° C. in one minute is designated as one unit. Specific activity is expressed by unit per mg of protein. The amount of enzyme protein is measured according to the method of O. H. Lowry, N. J. Rosebrough, A. L. Farr and R. J. Randall, J. Biol. Chem., 193 265(1951) using a copper-Folin reagent.
(§2) The enzyme activity can be measured by allowing the hydrogen peroxide formed from acetaldehyde by the action of the enzyme to react with 4-aminoantipyrine and phenol in the presence of a peroxidase and by quantitatively determining the amount of quinoneimine formed. The reaction is illustrated by the following equations (1) and (2): [drawing 1]
(§3) The above reagents (1)-(6) are put into a test tube, thoroughly shaken, and left standing at 37° C. for 5 minutes. Then, the enzyme solution (7) is added to the test tube to make up a total volume of 3 ml, and the test tube is shaken at 37° C. for 10 minutes to complete the reaction. As a control, the procedure is repeated using water in place of the substrate. The absorbancies of the reaction solution and control at 500 nm are measured, and the difference between the absorbancies is obtained as ΔO.D.
(§4) One unit of aldehyde oxidase is the amount of enzyme for decomposing 1 μmole of acetaldehyde at 37° C. in one minute. The absorbancy coefficient of 1 mM quinoneimine is reported in Clin. Chem., 20, 470(1974) to be 5.33. Therefore, if the absorbancy (ΔO.D.) of 3 ml of the reaction solution at 500 nm as obtained in the procedure (C) is designation as a, titer (A) per ml of the enzyme solution can be given as follows: [formula]
(§5) II. Physical and chemical properties of the aldehyde oxidase of the present invention are described below (hereinafter, the aldehyde oxidase will be sometimes referred to merely as "the present enzyme"). A purified enzyme prepared in Example 1 is used as the aldehyde oxidase.
For example, formaldehyde, acetaldehyde and glyceraldehyde are oxidized to formic acid, acetic acid and glyceric acid respectively. The present enzyme acts upon a wide range of aldehydes, for example, saturated aliphatic aldehydes such as formaldehyde, acetaldehyde, propionaldehyde, n-valeraldehyde, n-hexylaldehyde, heptylaldehyde, etc.; unsaturated aliphatic aldehydes such as crotonaldehyde, citral, etc.; aromatic aldehydes such as benzaldehyde, etc.; D- or L-glyceraldehyde, etc.
In the following Table 1, the relative activity of the present enzyme upon various substrates is set forth.

[2] = tested on: aldehyde oxidase (the present enzyme); type: biochemical, Pseudomonas sp No. 6233
Procedure: as §1, §2, §3, §4, §5
The present enzyme is inhibited by mercuric chloride and p-chloromercuriphenylsulfonic acid, and thus it appears that an SH group takes part in the reaction.

[3] = molecular target: T1, aldehyde oxidase of animal origin (Oryctolagus cuniculus, UniProt P80456); conditions: known enzyme, literature; cited from earlier work
T1 sequence (P80456 1-1334): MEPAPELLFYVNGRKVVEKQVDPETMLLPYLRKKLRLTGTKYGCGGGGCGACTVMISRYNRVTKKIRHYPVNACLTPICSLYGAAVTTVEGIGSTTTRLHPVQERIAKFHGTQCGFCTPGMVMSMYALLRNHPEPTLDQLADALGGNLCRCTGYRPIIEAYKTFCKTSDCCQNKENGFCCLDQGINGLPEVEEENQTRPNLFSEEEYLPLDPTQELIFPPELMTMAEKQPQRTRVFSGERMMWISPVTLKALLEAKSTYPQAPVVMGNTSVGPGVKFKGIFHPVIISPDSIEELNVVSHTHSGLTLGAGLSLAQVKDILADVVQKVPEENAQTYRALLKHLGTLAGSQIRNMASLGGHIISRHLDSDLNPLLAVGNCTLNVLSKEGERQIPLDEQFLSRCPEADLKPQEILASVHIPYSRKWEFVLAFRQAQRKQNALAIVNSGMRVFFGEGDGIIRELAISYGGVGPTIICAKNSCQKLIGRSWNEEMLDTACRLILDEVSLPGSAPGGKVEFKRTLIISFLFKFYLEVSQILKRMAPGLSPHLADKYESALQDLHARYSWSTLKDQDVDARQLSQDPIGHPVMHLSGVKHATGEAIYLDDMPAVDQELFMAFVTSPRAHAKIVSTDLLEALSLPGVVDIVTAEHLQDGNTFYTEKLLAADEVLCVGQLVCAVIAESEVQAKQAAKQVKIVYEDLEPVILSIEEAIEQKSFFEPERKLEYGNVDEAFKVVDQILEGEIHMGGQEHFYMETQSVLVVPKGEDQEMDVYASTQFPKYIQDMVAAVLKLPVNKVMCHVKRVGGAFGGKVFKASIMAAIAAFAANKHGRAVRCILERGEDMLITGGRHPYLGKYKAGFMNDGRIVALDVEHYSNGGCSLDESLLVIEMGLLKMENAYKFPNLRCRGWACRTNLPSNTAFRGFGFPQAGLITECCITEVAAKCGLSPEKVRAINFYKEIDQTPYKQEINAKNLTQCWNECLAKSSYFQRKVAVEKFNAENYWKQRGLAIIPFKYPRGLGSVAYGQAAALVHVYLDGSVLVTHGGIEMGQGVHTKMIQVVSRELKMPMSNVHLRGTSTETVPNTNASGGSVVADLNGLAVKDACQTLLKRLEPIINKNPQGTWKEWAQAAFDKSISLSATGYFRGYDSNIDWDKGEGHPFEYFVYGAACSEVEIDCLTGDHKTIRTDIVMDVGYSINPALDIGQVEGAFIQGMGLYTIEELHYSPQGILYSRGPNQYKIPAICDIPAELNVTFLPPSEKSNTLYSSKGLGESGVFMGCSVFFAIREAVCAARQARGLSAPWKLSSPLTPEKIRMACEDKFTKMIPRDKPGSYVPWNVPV

[4] = molecular target: T1, aldehyde oxidase of animal origin; type: biochemical
Description: *aldehyde oxidase of animal origin for comparison purposes.

[5] = concentration 0.1 mM, none = 100

Compound | action of the present enzyme upon the substrate [1] | Relative activity (substrate specificity) [1] [%] | also measured
CC=O [Acetaldehyde] | acts upon | 266 | 
[Ba+2].[Cl-].[Cl-] [BaCl2] |  |  | Relative activity (%) [2, 5]: 87%
O=Cc1ccccc1 [Benzaldehyde] | acts upon | 93 | 
CC(=O)O [Ca(CH3 COO)2] |  |  | Relative activity (%) ([2]; 1000 µM): 109%
CC(C)=CCCC(C)=CC=O [Citral] | acts upon | 291 | 
[Cl-].[Cl-].[Co+2] [CoCl2] |  |  | Relative activity (%) ([2]; concentration 1 mM, none = 100): 104%
C/C=C/C=O [Crotonaldehyde] | acts upon | 260 | 
O=S(=O)([O-])[O-].[Cu+2] [CuSO4] |  |  | Relative activity (%) [2, 5]: 20%
O=C[C@H](O)CO [D-Glyceraldehyde] | acts upon | 270 | 
CCO [Ethanol] | does not act upon | 0 | 
O=S(=O)([O-])[O-].[Fe+2] [FeSO4] |  |  | Relative activity (%) [2, 5]: 100%
C=O [Formaldehyde] | acts upon | 100 | 
CCCCCCC=O [Heptylaldehyde] | acts upon | 387 | 
[Cl][Hg][Cl] [HgCl2, mercuric chloride] |  |  | Relative activity (%) [2, 5]: 0%; inhibition of the present enzyme [2]: inhibited
NO [Hydroxylamine] |  |  | Relative activity (%) ([2]; concentration 1 mM, none = 100): 110%
O=c1[nH]cnc2nc[nH]c12 [Hypoxanthine] | does not have any catalytic action | 0 | action of aldehyde oxidase of animal origin upon the substrate [3]: acts upon
O=C[C@@H](O)CO [L-Glyceraldehyde] | acts upon | 23 | 

Compound | action of the present enzyme upon the substrate [1] | Relative activity (substrate specificity) [1] [%] | also measured
CO [Methanol] | does not act upon | 0 | 
O=S(=O)([O-])[O-].[Mg+2] [MgSO4] |  |  | Relative activity (%) ([2]; concentration 1 mM, none = 100): 97%
[Cl][Mn][Cl] [MnCl2] |  |  | Relative activity (%) ([2]; concentration 1 mM, none = 100): 106%
C[n+]1cccc(C(N)=O)c1 [N'--Methylnicotinamide] | does not act upon | 0 | 
c1cnc2c(c1)ccc1cccnc12 [O--Phenanthroline] |  |  | Relative activity (%) ([2]; concentration 1 mM, none = 100): 103%
CCC=O [Propionaldehyde] | acts upon | 285 | 
c1ncc2[nH]cnc2n1 [Purine] | does not have any catalytic action | 0 | action of aldehyde oxidase of animal origin upon the substrate [3]: acts upon
C=C[C@H]1C[N@@]2CC[C@H]1C[C@H]2[C@H](O)c1ccnc2ccc(OC)cc12 [Quinine] | does not have any catalytic action; also recorded: does not act upon | 0 | 
c1ccc2ncccc2c1 [Quinoline] | does not act upon | 0 | 
ON=Cc1ccccc1O [Salicylaldoxime] |  |  | Relative activity (%) ([2]; 1000 µM): 91%
[Cl-].[Cl-].[Sr+2] [SrCl2] |  |  | Relative activity (%) ([2]; concentration 1 mM, none = 100): 94%
[Cl-].[Cl-].[Zn+2] [ZnCl2] |  |  | Relative activity (%) ([2]; concentration 1 mM, none = 100): 103%
CCCCCC=O [n-Hexylaldehyde] | acts upon | 390 | 
CCCCC=O [n-Valeraldehyde] | acts upon | 367 | 
O=S(=O)(O)c1cc[c]([Hg][Cl])cc1 [p-Chloromercuriphenylsulfonic acid, p-chloromercuriphenylsulfonic acid] |  |  | Relative activity (%) [2, 5]: 0%; inhibition of the present enzyme [2]: inhibited
c1ccc(-c2ccccn2)nc1 [α, α'-Dipyridyl] |  |  | Relative activity (%) ([2]; concentration 1 mM, none = 100): 85%
Antimycin A |  |  | Relative activity (%) ([2]; concentration 2 × 10^-3 mM, none = 100, 2 µM): 94%; inhibition of the present enzyme [2]: not strongly inhibited; Relative activity (%), aldehyde oxidase of animal origin ([4]; concentration 2 × 10^-3 mM, value in brackets, for comparison, 2 µM): 38%; inhibition of the known aldehyde oxidase of animal origin ([4]; known aldehyde oxidase): strongly inhibited
